Measured values published in patent US20070105892A1, “Amidino compounds as cysteine protease inhibitors” (AXYS Pharmaceuticals, Inc., priority 2003, published 2007).

melting point: 202 to 204 °C
SMILES: CCc1noc(C(=O)[C@H](CC)NC(=O)[C@H](CC2(C)CCCC2)NC2=NS(=O)(=O)c3ccccc32)n1 [Example 1]
